From PubChem BioAssay AID206 (DTP/NCI, 2004) come the findings set out here.

The test system of this test is nude mice, HT29 intrarenal xenograft, tumor weight T/C. Description: NCI In Vivo Anticancer Drug Screen. Data for tumor model HT29;CX-1 Human Adenocarcinoma (MER+) (intrarenal inoculation) in NU/NU Swiss (nude) mice. The note with it: endpoint: mean tumor weight change, higher = larger tumour. Summed up: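 Mice with transplanted tumors are dosed with compound while controls get vehicle only. Survival or tumor burden is then assessed per group, and the treated value is expressed relative to control.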

Where [1] appears, read: dose: 75.0 mg/kg/injection, schedule: Q04DX004 (sc), vehicle: Klucel (hydroxypropylcellulose) (HPC).
Where [2] appears, read: dose: 150.0 mg/kg/injection, schedule: Q04DX004 (sc), vehicle: Klucel (hydroxypropylcellulose) (HPC).
Where [3] appears, read: dose: 150.0 mg/kg/injection, schedule: Q04DX004 (sc), vehicle: saline with Tween-80.
Where [4] appears, read: dose: 300.0 mg/kg/injection, schedule: Q04DX004 (sc), vehicle: saline with Tween-80.
[5] abbreviates: dose: 600.0 mg/kg/injection, schedule: Q04DX004 (sc), vehicle: saline with Tween-80.
Where [6] appears, read: dose: 1200.0 mg/kg/injection, schedule: Q04DX004 (sc), vehicle: saline with Tween-80.
The mark [7] stands for this setting: dose: 50.0 mg/kg/injection, schedule: Q04DX004 (sc), vehicle: saline with Tween-80.
[8] abbreviates: dose: 100.0 mg/kg/injection, schedule: Q04DX004 (sc), vehicle: saline with Tween-80.
Where [9] appears, read: dose: 200.0 mg/kg/injection, schedule: Q04DX004 (sc), vehicle: saline with Tween-80.
The mark [10] stands for this setting: dose: 400.0 mg/kg/injection, schedule: Q04DX004 (sc), vehicle: saline with Tween-80.
The mark [11] stands for this setting: dose: 2400.0 mg/kg/injection, schedule: Q04DX004 (sc), vehicle: saline with Tween-80.
Where [12] appears, read: dose: 300.0 mg/kg/injection, schedule: Q04DX004 (sc), vehicle: Klucel (hydroxypropylcellulose) (HPC).
The mark [13] stands for this setting: dose: 600.0 mg/kg/injection, schedule: Q04DX004 (sc), vehicle: Klucel (hydroxypropylcellulose) (HPC).
The mark [14] stands for this setting: dose: 1200.0 mg/kg/injection, schedule: Q04DX004 (sc), vehicle: Klucel (hydroxypropylcellulose) (HPC).

Several values for one entry are separate records, joined by “and”; a condition that tells them apart may be missing. Equal values may be shown once. Results filed as inconclusive are left out.

As for `CC(C)CCCCCCCCCCCCC(=O)NCC(=O)NC1C(C)OC(Nc2ncnc3nc[nH]c23)C(O)C1O` (stereo not drawn), the T/C (dose: 2.0 mg/kg/injection, schedule: Q01DX010 (sc), vehicle: distilled water + Tween-80) was -35 % of control; the T/C (dose: 2.0 mg/kg/injection, schedule: Q01DX010 (sc), vehicle: saline with Tween-80) was -6 % of control; the T/C (dose: 4.0 mg/kg/injection, schedule: Q04DX004 (sc), vehicle: distilled water + Tween-80) was 37 % of control; the T/C (dose: 8.0 mg/kg/injection, schedule: Q01DX010 (sc), vehicle: distilled water + Tween-80) is 20 % of control; the T/C (dose: 8.0 mg/kg/injection, schedule: Q04DX004 (sc), vehicle: distilled water + Tween-80) is 36 % of control; the T/C (dose: 16.0 mg/kg/injection, schedule: Q01DX010 (sc), vehicle: saline with Tween-80) was 23 % of control.

For the compound `CC[C@]1(O)C[C@H]2CN(CCc3c([nH]c4ccccc34)[C@@](C(=O)OC)(c3cc4c(cc3OC)N(C)[C@H]3[C@@](O)(C(=O)OC)[C@H](OC(C)=O)[C@]5(CC)C=CCN6CC[C@]43[C@@H]65)C2)C1`, the T/C (dose: 0.25 mg/kg/injection, schedule: Q01DX010 (sc), vehicle: saline) was 76 % of control; the T/C (dose: 0.5 mg/kg/injection, schedule: Q01DX010 (sc), vehicle: saline) is 88 % of control; the T/C (dose: 1.0 mg/kg/injection, schedule: Q01DX010 (sc), vehicle: saline) was 60 % of control.

For `O=C1N[C@@H]([C@H]2CC[C@H](Cl)CN2)C(=O)N[C@H]1[C@H]1CC[C@H](Cl)CN1`, the T/C reads like this: (dose: 0.16 mg/kg/injection, schedule: Q01DX010 (sc), vehicle: water) 65 % of control and 70 % of control and 74 % of control; (dose: 0.31 mg/kg/injection, schedule: Q01DX010 (sc), vehicle: water) 20 % of control.

In the case of `CCN(C)N=Nc1ccc(C(N)=O)cc1`, the T/C was 92 % of control under setting [1] and 68 % of control under setting [2].

As for `O=C1CC2(C(=O)N1CN1CCCCC1)c1ccccc1-c1ccccc12`, the T/C runs as follows: (dose: 100.0 mg/kg/injection, schedule: Q04DX004 (sc), vehicle: Klucel (hydroxypropylcellulose) (HPC)) 43 % of control; (dose: 400.0 mg/kg/injection, schedule: Q04DX004 (sc), vehicle: Klucel (hydroxypropylcellulose) (HPC)) 69 % of control; (dose: 800.0 mg/kg/injection, schedule: Q04DX004 (sc), vehicle: Klucel (hydroxypropylcellulose) (HPC)) 70 % of control.

Turning to `O=C(NO)c1ccc(O)c(O)c1`, the T/C is, setting by setting: (dose: 200.0 mg/kg/injection, schedule: Q04DX004 (sc), vehicle: water) 52 % of control; (dose: 400.0 mg/kg/injection, schedule: Q04DX004 (sc), vehicle: water) 86 % of control.

For the compound `CN=C(N)N/N=C(\C)c1ccc2c(c1)Cc1ccccc1-2`, the T/C by setting is: under setting [3], 116 % of control; under setting [4], 91 % of control; under setting [5], 46 % of control; under setting [6], 81 % of control.

With `CN(C)C=O`, the T/C runs as follows: (dose: 400.0 mg/kg/injection, schedule: Q01DX010 (sc), vehicle: saline) 186 % of control; (dose: 3200.0 mg/kg/injection, schedule: Q01DX010 (sc), vehicle: saline) 48 % of control and 49 % of control.

Turning to `CS(=O)(=O)CS(=O)(=O)OCCCl`, the T/C runs as follows: (dose: 37.5 mg/kg/injection, schedule: Q04DX004 (sc), vehicle: suspension in saline) 363 % of control; (dose: 75.0 mg/kg/injection, schedule: Q04DX004 (sc), vehicle: suspension in saline) 187 % of control; (dose: 150.0 mg/kg/injection, schedule: Q04DX004 (sc), vehicle: suspension in saline) 150 % of control.

`O=c1[nH]c(=O)n(C2OC(CO)C(O)C2O)cc1F` (stereo not drawn): for the setting “dose: 4.69 mg/kg/injection, schedule: Q04DX004 (sc), vehicle: saline”, the T/C is 34 % of control.

On to `ClCCCCCCCCCCc1ccccc1`, for which the T/C runs as follows: (dose: 100.0 mg/kg/injection, schedule: Q01DX010 (sc), vehicle: Klucel (hydroxypropylcellulose) (HPC)) 23 % of control; (dose: 200.0 mg/kg/injection, schedule: Q01DX010 (sc), vehicle: Klucel (hydroxypropylcellulose) (HPC)) 36 % of control; (dose: 400.0 mg/kg/injection, schedule: Q01DX010 (sc), vehicle: Klucel (hydroxypropylcellulose) (HPC)) 57 % of control.

Regarding `CCOC(=O)Nc1cc2c(c(N)n1)N=C(c1ccccc1)CN2`, the T/C is 90 % of control (dose: 12.5 mg/kg/injection, schedule: Q04DX004 (sc), vehicle: saline with Tween-80) and 104 % of control (dose: 25.0 mg/kg/injection, schedule: Q04DX004 (sc), vehicle: saline with Tween-80).

For `COC1CC(C)C(OC)C2=CC(=O)C=C(NC(=O)/C(C)=C/C=C\C(C)C(OC(N)=O)/C(C)=C\C(C)C1OC)C2=O` (stereo not drawn), the T/C is 99 % of control (dose: 12.5 mg/kg/injection, schedule: Q04DX004 (sc), vehicle: saline + alcohol); 73 % of control (dose: 25.0 mg/kg/injection, schedule: Q04DX004 (sc), vehicle: saline + alcohol); 53 % of control (dose: 50.0 mg/kg/injection, schedule: Q04DX004 (sc), vehicle: saline + alcohol).

As to `O=C(Nc1nncs1)c1cccs1`, the T/C runs as follows: under setting [7], 61 % of control; under setting [8], 93 % of control; under setting [9], 72 % of control; under setting [4], 106 % of control; under setting [10], 95 % of control; under setting [5], 121 % of control. The T/C under setting [6] is 110 % of control.

As to `CCCCOC(=O)/C=C(\Br)C(=O)OCCCC`, the T/C runs as follows: (dose: 250.0 mg/kg/injection, schedule: Q04DX004 (sc), vehicle: saline with Tween-80) 69 % of control; (dose: 500.0 mg/kg/injection, schedule: Q04DX004 (sc), vehicle: saline with Tween-80) 43 % of control.

For `CN(C=O)C(C(=O)Nc1cccc2c(OC(=O)C(N(C)C=O)(N(C)C=O)N(C)C=O)c(N=Nc3ccc(S(=O)(=O)Nc4nccs4)cc3)cc(N=Nc3ccc(S(=O)(=O)Nc4nccs4)cc3)c12)(N(C)C=O)N(C)C=O` (tested in a mixture with another compound), the T/C is 91 % of control under setting [4], 103 % of control under setting [5] and 80 % of control under setting [6].

As to `CCCCCCOC(CN(C)C)C(Cl)(Cl)Cl` (stereo not drawn), the T/C by setting is: under setting [10], 91 % of control; (dose: 800.0 mg/kg/injection, schedule: Q04DX004 (sc), vehicle: saline with Tween-80) 57 % of control; (dose: 1600.0 mg/kg/injection, schedule: Q04DX004 (sc), vehicle: saline with Tween-80) 81 % of control; under setting [11], 67 % of control.

As for `Cc1cc(O)c(N=Nc2ccc(C(=O)O)cc2)cc1C`, the T/C was 107 % of control under setting [5] and 154 % of control under setting [11].

Regarding `CCc1ncnc2cc(OCC3CO3)c(OC)cc12` (stereo not drawn), the T/C was 69 % of control (dose: 25.0 mg/kg/injection, schedule: Q04DX004 (sc), vehicle: saline); 36 % of control (dose: 50.0 mg/kg/injection, schedule: Q04DX004 (sc), vehicle: saline); 80 % of control (dose: 100.0 mg/kg/injection, schedule: Q04DX004 (sc), vehicle: saline).

As to `CCC(CC)COC(=O)c1ccccc1C(=O)OCC(CC)CC`, the T/C is, setting by setting: under setting [4], 94 % of control; under setting [5], 53 % of control; under setting [6], 81 % of control; under setting [11], 71 % of control.

On to `CCCN1COC(OCC)C(C)(C)C1` (stereo not drawn), for which the T/C is 114 % of control under setting [3], 79 % of control under setting [4] and 96 % of control under setting [5].

For the compound `Nc1cc2c3c(cccc3c1)C(=O)N(CCN1CCCC1)C2=O`, the T/C was 170 % of control under setting [7], 202 % of control under setting [8], 233 % of control under setting [9] and 177 % of control under setting [10].

As for `O=c1ssc(=Nc2ccccc2)n1-c1ccccc1`, the T/C was 88 % of control under setting [12]; 75 % of control under setting [13]; 98 % of control under setting [14]; 189 % of control (dose: 2400.0 mg/kg/injection, schedule: Q04DX004 (sc), vehicle: Klucel (hydroxypropylcellulose) (HPC)).

In the case of `O=C1C=CC(=O)N1c1ccc(Cl)cc1`, the T/C is, setting by setting: (dose: 37.5 mg/kg/injection, schedule: Q04DX004 (sc), vehicle: Klucel (hydroxypropylcellulose) (HPC)) 70 % of control; under setting [1], 70 % of control; under setting [2], 106 % of control.

Turning to `CCc1ccccc1N1CCN(C(=O)c2cc(OC)c(OC)c(OC)c2)CC1`, the T/C was 57 % of control under setting [12], 120 % of control under setting [13] and 84 % of control under setting [14].
